From patent US20060172920A1, “Oxidised lipids as reversal agents for boronic acid drugs” (priority 2004, published 2006)
Values joined by “and” are separate entries in the source; they are usually repeats but may differ in a detail not shown here. Equal values may be shown once.

Columns and labels:
human thrombin [1] = experiment: Total neutralising capacity towards peptide boronates (Method C); type: biochemical; details: for maximum number of boronate molecules destroyed by BLp: BLp in the absence of Cu2+
Procedure: Method C. 20 μl of TRI-50b dissolved in DMSO was added to 313 μl of bovine lipoprotein (diluted 1 in 10 in Buffer A, see method A above) to achieve a range of final concentrations of 164, 333, 490, 660, 820, 990, 1150, 1320 and 1480 μM, respectively. Samples were removed at timed intervals and diluted 1 in 20 with buffer A. The concentration of TRI-50b in 25 μl of this mixture was determined as described in Method A. Residual TRI-50b was determined from a standards curve. The change in concentration of TRI-50b was calculated by subtracting the residual concentration from the starting concentration.
BLp was incubated at 37° C. in the presence or absence of 1 mM cupric sulphate, Samples were taken at timed intervals and added to varying concentrations of TRI-50b up to 1.5 mM. The residual TRI-50 b was measured by Method C (Materials and Methods). —Cu^2+ […]-[…]; +Cu^2+ ▴-▴. In FIG. 10 are shown the results of an experiment in which the total mass of neutralising activity of bovine lipoprotein was determined. Increasing concentrations of TRI-50b up to 1.5 mM were added to a ten-fold dilution of the BLp fraction (OD280 nm=4.0). A rapid neutralisation of TRI-50b was observed reaching a maximum beyond which the neutralising capacity was totally exhausted. In the absence of Cu^2+, the maximum mass of TRI-50b that was neutralised was equivalent to 0.8 mM. The concentration of BLp in the mixture was 1.9 g/l or 0.0038 mM. Thus around 200 moles of TRI-50b were neutralised per mole of lipoprotein. In the presence of Cu^2+, the maximum mass of TRI-50b that was neutralised was higher and equivalent to 320 moles/mole.
A similar experiment was carried out with dilutions of plasma (FIG. 11). […] Plasma at varying dilutions was incubated at 37° C. in the presence of 1 mM cupric sulphate. Samples were taken at timed intervals and added to varying concentrations of TRI-50b up to 1.5 mM. The residual TRI-50 b was measured by Method C (Materials and Methods). 1 in 3, […]-[…]; 1 in 6, ▴-▴; 1 in 12, ▾-▾; 1 in 3 without Cu^2+, ▪-▪. […]
The low-density lipoprotein particle contains a single molecule of a 500 kDa protein and 1500 molecules of esterified cholesterol. […] Samples were taken at timed intervals and the residual TRI-50b concentration was determined by Method C (Materials and Methods).
In FIG. 13 are shown the observations made upon the neutralisation of a number of other peptide boronates by BLp added in the absence of Cu^2+, namely TRI-30, Z-D-Dpa-Pro-BoroMbg-Opin, TRI-26, Z-D-βNal-Pro-BoroIrg-Opin; TRI-142, Moc-D,L-Dpa-Pro-BoroMpg-Opinac. […] The residual concentration of boronate was determined by Method C (Materials and Methods).

human thrombin [2] = experiment: Quenching of TRI-50b neutralising activity by N-acetyl cysteine (Method B); type: biochemical
Procedure: Method B Method as A except that the measurement was made at a single time point. The incubation period was 20 minutes with plasma samples and 1 minute with the purified lipoproteins. Results are given as the overall percentage activity relative to a control without inhibitor. If lipid peroxides are involved in the inactivation then, the addition of n-acetyl-cysteine (NAC), a powerful anti-oxidant should reduce the neutralising activity. (NAC has been used historically to mop up reactive oxygen species). […] Plasma (1 in 10 dilution in buffer A) was incubated with 1.0 mM cupric sulphate for 4 hours. Increasing concentrations of n-acetyl cysteine were then added and also to BLp (1 in 10 dilution in buffer A). The neutralisation of TRI-50b was measured by Method B (Materials and Methods). Plasma, ▪-▪, BLp ▴-▴. A reduction in neutralising activity, to approximately base-line levels was observed when increasing concentrations of NAC were added to plasma or the bovine lipoprotein fraction (FIG. 14).

thrombin [3] = target: T1, thrombin (Homo sapiens, UniProt P00734); experiment: Ki of hydrogen peroxide-treated TRI-50b against thrombin (Dixon plots); type: biochemical; details: after hydrogen peroxide (3.0%) 2 hours at RT
Procedure: The loss of activity of boropeptides when contacted with peroxide compounds was apparently due to the removal of the boronic acid moiety (as was observed upon treatment of TRI-50b with hydrogen peroxide). The boron provides at least four orders of binding energy to the peptide sequence because of the formation of a transition state-like adduct with the active site serine. […] 1 volume TRI-50b (15 mg/ml in DMSO) was added slowly to 10 volumes of hydrogen peroxide (3.0%) for 2 hours at RT. The Ki for inhibition of thrombin activity was carried out using Dixon plots. The initial rate of cleavage of S2302 (a chromogenic substrate for thrombin) by thrombin (28 nM) was determined at the different concentrations of substrate in the presence of varying concentrations of the oxidised inhibitor. This loss of binding energy was observed as a 20,000 fold increase in the Ki against thrombin (FIG. 15).

thrombin clotting time = experiment: Example 11: TRI 50b and lipoprotein antidote in rat, thrombin clotting time; type: in vivo
Procedure: The efficacy of a new specific antidote towards the dynamic activity of TRI 50b was evaluated in a rat study (n=15) (Male and Female rats circa 250-300 g).
Male and female rats were anaesthetised and arterial blood sampling lines placed.
The antidote was prepared from a bovine lipoprotein following oxidation, ultrafiltration and Concentration.
The study was divided into three groups as follows: • TRI 50b alone at a dose of 2.0 mg/kg intravenously (0.8 ml/kg: Prepared in 25% ethanol/saline) • Antidote alone (5.0 ml/kg) • TRI 50b followed by administration of the antidote.
Blood samples were taken from an arterial line into 3.8% tri-sodium citrate and plasma prepared by centrifugation.
Dynamic activity of TRI 50b was assessed in plasma samples by measurement of the thrombin clotting time.
200 ml of Lipocell (Lipoprotein fraction, Intergen catalogue number 4505-01, Lot number WT18002) was incubated at 37° C. for 37 hours. The Lipocell was then concentrated by centrifugation. The sample contained in an Amicon Centriprep YM-3 centrifugal concentrator was spun at 3800 rpm in an IEC Centra 3C centrifuge for 30 minutes at RT. The concentrated samples were pooled and centrifuged twice more to a final volume of around 50 mls. The sample was stored at 4° C.

normal human plasma = experiment: Ecarin clotting time in human plasma (Example 10, Method D); type: biochemical; details: 1-10 μM
Procedure: (§1) Ecarin was obtained from HTI (USA) whilst the normal human plasma was purchased from Precision Biologics via Alpha Laboratories (UK). Rat plasma was purchased from Harlan laboratories, UK.
(§2) TRI 50c was diluted in an assay buffer (100 mM sodium orthophoshate, 200 mM NaCl, 0.5% PEG 6000 and 0.02% sodium azide, pH 7.5) and incubated with normal human pooled or rat plasma (80% final) for 5 minutes at 37° C. Ecarin (100 μg/ml final) was added to the incubating solution. The clotting times were determined using a plate reader (Versamax, Molecular Devices Corporation) at 405 nm for up to 10 minutes at 37° C.

rat plasma = experiment: Ecarin clotting time in rat plasma (Example 10, Method D); type: biochemical; details: 10 μM; fresh rat plasma
Procedure: as §1, §2

thrombin [4] = target: T1, thrombin; experiment: Thrombin assay, reversal of TRI 50c inhibition (Example 10, Methods A-C); type: biochemical; details: final concentration; TRI 50c 1 μM; Method A
Procedure: 50 μl thrombin (33.3 ng/ml in assay buffer) and 20 μl vehicle or compound solution were added to 110 μl assay buffer (100 mM Na orthophosphate (80% Na2HPO4 and 20% NaH2PO4), 200 mM NaCl, 0.5% PEG 6000, 0.02% Na azide, pH 7.5) and incubated for 5 minutes at 37° C. […] Results are expressed as percentage change in thrombin activity. […] After the incubation period 100 μl of activated HDL (Method B) was added and further incubated for 30 minutes at 37° C.

[5] = stored at −80° C.; cited from earlier work
[6] = PBS pH 7.2; cited from earlier work

Z-D-βNal-Pro-BoroIrg-Opin [TRI-26]
maximum number of boronate molecules destroyed by BLp (human thrombin [1]): around 65 moles/mole

CC(=O)NC(CS)C(=O)O (stereo not shown) [NAC, n-acetyl-cysteine]
IC50 (human thrombin [2]; BLp (1 in 10 dilution)): ~2000 µM
IC50 (human thrombin [2]; oxidised plasma (1 in 10, 1.0 mM cupric sulphate 4 hours)): ~100 µM

COCCC[C@H](NC(=O)[C@@H]1CCCN1C(=O)[C@@H](Cc1ccccc1)NC(=O)OCc1ccccc1)B1OC(C)(C)C(C)(C)O1 [TRI 50b, Cbz-(R)-Phe-Pro-BoroMpg-OPinacol]
increase in the Ki against thrombin (thrombin [3]): 20,000 fold
elevation of thrombin clotting time over base line (thrombin clotting time; 2.0 mg/kg intravenously, two minutes post dose): 5.6 times base line
thrombin clotting time (TT) (thrombin clotting time; 2.0 mg/kg iv, 30 minutes post dose): 36 s
time for thrombin clotting time to return to base line (thrombin clotting time; 2.0 mg/kg iv, post dose): ≤ 60 min
thrombin clotting time (thrombin clotting time; 2.0 mg/kg iv, two minutes post dose): 128 s and 138 s

COCCC[C@H](NC(=O)[C@@H]1CCCN1C(=O)[C@@H](Cc1ccccc1)NC(=O)OCc1ccccc1)B(O)O [TRI 50c, Cbz-(R)-Phe-(S)-Pro-(R)-Mpg-B(OH)2]
prolongation of ECT (normal human plasma): concentration dependent prolongation
ECT (rat plasma): approximately 215 seconds

Moc-D,L-Dpa-Pro-BoroMpg-Opinac [TRI-142]
maximum number of boronate molecules destroyed by BLp (human thrombin [1]): around 65 moles/mole

O=S(=O)([O-])[O-].[Cu+2] [CuSO4, copper sulphate]
concentration that began to reduce the inhibitory activity of TRI 50c (thrombin [4]): greater than 50 μM

Z-D-Dpa-Pro-BoroMbg-Opin [TRI-30]
maximum number of boronate molecules destroyed by BLp (human thrombin [1]): around 80 moles/mole

cholesteryl linoleate hydroperoxide
equivalence of TRI-50b neutralisation (human thrombin [1]; 44 μM hydroperoxide mixed with TRI-50b): approximately 1 mole/mole
storage stability [5]: stable for at least six months
solubility in aqueous buffers [6]: < 20 µg/mL
